Results as given in patent US20220288046A1, “COMBINATION PRODUCT CONTAINING LIMONOID COMPOUND AND THIAZOLIDINEDIONE COMPOUND” (ZHEJIANG YANGSHENGTANG INSTITUTE OF NATURAL MEDICATION CO., …, priority 2019, published 2022).

Experiments:
Format in all cases: in vivo
[1] = system: db/db mice; assay: Blood glucose in mouse type II diabetes model (db/db mice), limonoid/pioglitazone; conditions: single agent 0.04 g/kg per day gavage, two weeks, 1 h after last administration, mean ± SD
Text: (§1) Effects of limonoid compound, pioglitazone or combination thereof on blood glucose and leptin in mouse type II diabetes model In the present example, db/db mice (line name BKS.Cg-Dock7m^+/+Lepr^db/Nju) were used to perform hypoglycemic efficacy evaluation test of animals (blood glucose level and leptin). The limonoid compound was selected from obacunone, isoobacunoic acid and obacunone glycoside, and pioglitazone single administration group, obacunone single administration group, isoobacunoic acid single administration group, obacunone glycoside single administered group, and respective combination thereof with pioglitazone administration groups were set. Conditions for experimental feeding: as type II diabetes model mice, 6-week-old SPF-grade db/db mice were purchased from the Nanjing Model Biology Institute, and subjected to experimental feeding after 7 days of preliminary feeding. […] The experimental feed was mouse growth-stable feed (GB […]), and the daily feeding and management of the animals were under the responsibility of the animal security department, which provided the animals with sufficient diet and fresh drinking water daily. […] The data were expressed as mean and standard deviation. The data before and after were analyzed by t-test, and P <0.05 was considered statistically significant.

[2] = system: db/db mice; assay: Serum leptin (Elisa) in mouse type II diabetes model (db/db mice), limonoid/pioglitazone; conditions: single agent 0.04 g/kg per day gavage, two weeks, mean ± SD
Text: as §1

[3] = system: STZ mice; assay: Blood glucose in mouse pancreatic islet β-cell injury model (STZ ICR mice), limonoid/pioglitazone; conditions: single agent 0.1 g/kg per day gavage, two weeks, 1 h after last administration, mean ± SD
Text: Effects of limonoid compound, pioglitazone or combination thereof on blood glucose in mouse pancreatic islet β-cell injury model In this example, a mouse pancreatic islet β-cell injury model was established by modeling ICR mice with streptozotocin (STZ) (Li Nan et al., Protective effect of pine pollen on kidney damage in diabetic nephropathy mice, Science and Technology Review, 2014, 32 (4⁄5): 95-99), and used to complete the evaluation of hypoglycemic effect in animals (this model could simulate pancreatic islet β-cell damage state of type I and type II diabetics). The limonoid compound was selected from the group consisting of […], and […] glycoside, and pioglitazone single administration group, […] single administration group, […] single administration group, […] glycoside singe administration group, and respective combination thereof with pioglitazone administration groups were set. Conditions of experimental feeding: […] The experimental feed was mouse growth-stable feed (GB […]), and the daily feeding and management of the animals were under the responsibility of the animal security department, which provided the animals with sufficient diet and fresh drinking water daily. […] The data were expressed as mean and standard deviation. The data before and after were analyzed by t-test, and P <0.05 was considered statistically significant.

[4] = system: STZ mice; assay: Blood glucose in mouse type II diabetes model with pancreatic islet damage and obesity (STZ + high-fat diet ICR mice), limonoid/pioglitazone; conditions: single agent 0.5 g/kg per day gavage, two weeks, 1 h after last administration, mean ± SD
Text: Effects of limonoid compound, pioglitazone or combination thereof on blood glucose in mouse type II diabetes model with pancreatic islet damage and obesity In this example, a mouse model of type II diabetes with pancreatic islet damage and obesity was established by multiple modeling ICR mice with a small dose of streptozotocin (STZ), following with continuous high-fat diets (referring to literature: […] Conditions of experimental feeding: […] The experimental feed was mouse growth-stable feed (GB […]), and the daily feeding and management of the animals were under the responsibility of the animal security department, which provided the animals with sufficient diet and fresh drinking water daily. Experimental grouping: 15 male mice were randomly selected as the normal control group, and the remaining mice were subjected to a high-fat diet (high-fat diet formula: cholesterol 1%, egg yolk powder 10%, lard oil 10%, and basic feed 79%, for establishing an obesity mouse model) for consecutive 4 weeks and intraperitoneal injection of STZ at a dose of 35mg/kg for three consecutive days. […] SPSS 16.0 software was used for statistical analysis. The data were expressed as mean and standard deviation. The data before and after were analyzed by t-test, and P <0.05 was considered statistically significant.

[5] = system: STZ mice; assay: Blood glucose in mouse pancreatic islet β-cell injury model (STZ ICR mice), limonoid/rosiglitazone; conditions: single agent 0.02 g/kg per day gavage, two weeks, 1 h after last administration, mean ± SD
Procedure: It should be noted that the conditions for raising the mice were as follows: the temperature was 23±1° C., the humidity was 55±10%, the lights were turned on between 7 am and 7 pm (the lights were turned off at other time), and the mice were allowed to freely take in water and feed. The experimental feed was mouse growth-stable feed (GB M2118), and the daily feeding and management of the animals were under the responsibility of the animal security department, which provided the animals with sufficient diet and fresh drinking water daily.
SPSS 16.0 software was used for statistical analysis. The data were expressed as mean and standard deviation.

[6] = system: db/db mice; assay: Blood glucose in mouse type II diabetes model (db/db mice), limonoid/rosiglitazone; conditions: single agent 0.2 g/kg per day gavage, two weeks, 1 h after last administration, mean ± SD
Text: (§2) Effects of limonoid compound, rosiglitazone or combination thereof on blood glucose and insulin in mouse type II diabetes model
(§3) In the present embodiment, the limonoid compound was selected from nomilin, deacetylnomilin, nomilin acid, deacetylnomilin acid glycoside, and rosiglitazone single administration group, nomilin single administration group, deacetylnomilin single administration group, nomilin acid single administered group, deacetylnomilin acid glycoside single administration group, and respective combination thereof with rosiglitazone administration groups were set.
(§4) Conditions for experimental feeding: as type II diabetes model mice, 6-week-old SPF-grade db/db mice were purchased from the Nanjing Model Biology Institute, and subjected to experimental feeding after 7 days of preliminary feeding. […]
(§5) Two weeks later, the blood glucose values were measured by tail trimming method (Johnson's blood glucose meter) 1 h after the last administration, and serum insulin levels were measured with blood collected from orbital cavity by enzyme-linked immunosorbent assay (Elisa), and the average of each group was obtained. […] The data were expressed as mean and standard deviation.

[7] = system: db/db mice; assay: Serum insulin (Elisa) in mouse type II diabetes model (db/db mice), limonoid/rosiglitazone; conditions: single agent 0.2 g/kg per day gavage, two weeks, mean ± SD
Text: as §2, §3, §4, §5

CCc1ccc(CCOc2ccc(CC3SC(=O)NC3=O)cc2)nc1 (stereo not shown) [Pioglitazone, pioglitazone]
Blood glucose value [1]: 11.5 ± 3.0 mmol/L | Leptin [2]: 24.55 ± 5.14 pg/mL | Blood glucose value [3]: 12.8 ± 3.1 mmol/L | Blood glucose value [4]: 9.9 ± 2.1 mmol/L

CN(CCOc1ccc(CC2SC(=O)NC2=O)cc1)c1ccccn1 (stereo not shown) [Rosiglitazone, rosiglitazone]
Blood glucose value [5]: 17.9 ± 3.5 mmol/L | Blood glucose value [6]: 10.0 ± 2.5 mmol/L | Insulin [7]: 7.54 ± 1.21 pg/mL
